Measurements: patent US20030170643A1, “Regulation of apoB treatment and drug screening for cardiovascular and metabolic disorders or syndromes” (priority 1999, published 2003)

Target: T1, purified bovine MTP (Bos taurus, UniProt P55156)
T1 sequence (P55156 12-887): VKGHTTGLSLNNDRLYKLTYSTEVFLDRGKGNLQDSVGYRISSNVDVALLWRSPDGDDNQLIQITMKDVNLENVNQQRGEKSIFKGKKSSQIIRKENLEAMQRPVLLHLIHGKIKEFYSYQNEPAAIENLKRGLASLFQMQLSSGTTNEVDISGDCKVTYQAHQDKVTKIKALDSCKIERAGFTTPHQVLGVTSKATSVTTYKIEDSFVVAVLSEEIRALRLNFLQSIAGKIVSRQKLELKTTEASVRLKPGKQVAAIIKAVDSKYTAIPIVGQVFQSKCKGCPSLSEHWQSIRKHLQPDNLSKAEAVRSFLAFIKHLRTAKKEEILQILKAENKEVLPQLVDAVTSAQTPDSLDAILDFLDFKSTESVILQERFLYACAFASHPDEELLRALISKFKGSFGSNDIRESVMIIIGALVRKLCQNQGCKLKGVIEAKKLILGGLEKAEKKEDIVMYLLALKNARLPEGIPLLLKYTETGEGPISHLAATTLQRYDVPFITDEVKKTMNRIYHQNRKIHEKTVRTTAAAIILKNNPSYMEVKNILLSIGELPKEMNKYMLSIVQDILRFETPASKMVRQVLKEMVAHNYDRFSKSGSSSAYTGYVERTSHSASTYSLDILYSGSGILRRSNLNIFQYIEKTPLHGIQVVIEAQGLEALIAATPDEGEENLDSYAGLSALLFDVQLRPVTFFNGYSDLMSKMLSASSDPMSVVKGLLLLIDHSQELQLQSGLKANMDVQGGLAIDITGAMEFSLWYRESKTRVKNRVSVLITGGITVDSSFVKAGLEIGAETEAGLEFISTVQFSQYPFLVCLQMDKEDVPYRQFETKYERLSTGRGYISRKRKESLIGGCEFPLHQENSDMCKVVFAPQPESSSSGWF
T1 sequence (P05307 21-510 partner): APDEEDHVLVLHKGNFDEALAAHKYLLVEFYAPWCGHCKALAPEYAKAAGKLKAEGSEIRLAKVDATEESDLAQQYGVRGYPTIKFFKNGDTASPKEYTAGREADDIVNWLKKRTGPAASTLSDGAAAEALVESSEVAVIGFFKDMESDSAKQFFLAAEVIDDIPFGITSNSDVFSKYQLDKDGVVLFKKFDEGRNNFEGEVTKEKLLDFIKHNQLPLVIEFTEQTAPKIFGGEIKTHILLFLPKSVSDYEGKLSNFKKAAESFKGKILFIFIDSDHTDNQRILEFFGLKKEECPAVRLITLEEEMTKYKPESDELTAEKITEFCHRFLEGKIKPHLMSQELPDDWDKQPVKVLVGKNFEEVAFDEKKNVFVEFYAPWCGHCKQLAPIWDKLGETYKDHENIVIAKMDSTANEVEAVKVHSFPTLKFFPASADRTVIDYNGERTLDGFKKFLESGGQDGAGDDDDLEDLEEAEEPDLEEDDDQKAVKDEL
Experiment: MTP-mediated transfer of lipid classes biosynthetically labeled with OA or EPA (donor/acceptor vesicles)
Assay type: biochemical
Experimental: FIG. 5 illustrates that Ω-3 lipids are good substrates for MTP-mediated lipid transfer. HepG2 cells were incubated for 14 hr at 37° C. with ^14C-labeled oleate (OA) or ^14C-labeled EPA complexed to BSA (final concentration of either fatty acid was 0.8 mM). Total lipids were extracted from the washed cell monolayers and separated by preparative TLC into triglyceride (TG), cholesteryl ester (CE), phosphatidylcholine (PC), and phosphatidylethanolamine (PE). The isolated lipid classes were then incorporated (to a content of 0.5 mol %) into vesicles that were used as donors in lipid transfer assays with recombinant MTP. Results were normalized to the transfer of [^14C]triolein and are shown as mean values ±SE (n=4).
Three methods were used to assess possible effects of Ω-3 fatty acids on cellular MTP function. First, rat primary hepatocytes were incubated with BSA, OA, or EPA, and then MTP activity in cell lysates was measured using a fluorescent assay (Roar Biomedical, New York, NY). Second, to determine if lipid classes synthesized in the presence of OA or Ω-3 fatty acid are equivalent substrates for MTP, primary rat hepatocytes or HepG2 cells were incubated with tritiated OA or EPA, total cellular lipids were extracted into isopropanol, and biosynthetically labeled cholesteryl ester, triglyceride, and phospholipids were separated by preparative thin layer chromatography. Each of these isolated lipids was incorporated into vesicles that were used as donors in a transfer reaction with acceptor vesicles and […] of purified bovine MTP, as described in Jamil, H., Dickson, J. K., Jr., Chu, C. H., Lago, M. W., Rinehart, J. K., Biller, S. A., Gregg, R. E., and Wetterau, J. R. (1995) J Biol Chem 270(12), 6549-54. As an internal control for lipid transfer, each donor vesicle also contained [^14C]triolein. Third, to determine if Ω-3 lipids inhibit MTP-mediated transfer of non-Ω-3 lipids, artificial donor vesicles were prepared containing either labeled triolein or labeled POPC. The majority of lipid mass in these vesicles was unlabeled phosphatidylcholine that contained either 100% oleate esterified at the sn-2 position (control) or a mixture of 70% oleate and 30% DHA or 30% EPA. Transfer of the labeled lipids to acceptor vesicles in the presence of 50 μg of purified bovine MTP was measured as described in Jamil, H. et al (1995) J Biol Chem 270(12), 6549-54.
An intracellular abundance of relatively poor lipid substrates, produced during incubations of hepatocytes with EPA or DHA, could be functionally equivalent to MTP inhibition. Thus, rat primary hepatocytes and HepG2 cells were incubated with radiolabeled OA or EPA to allow incorporation of these fatty acids into lipid esters. […]

CCCCCCCC/C=C\CCCCCCCC(=O)O [OA, oleic acid]
MTP-mediated transfer of labeled cholesteryl esters, % of [14C]triolein transfer (lipids from fatty acid-treated HepG2 cells, P=0.07): 20%+4% | MTP-mediated transfer of labeled phosphatidylethanolamines, % of [14C]triolein transfer (lipids from fatty acid-treated HepG2 cells, P=0.6): 1.1%+0.1% | MTP-mediated transfer of labeled phosphatidylcholines, % of [14C]triolein transfer (lipids from fatty acid-treated HepG2 cells, P=0.7): 2.3%+1% | MTP-mediated transfer rate of labeled triglycerides, % of [14C]triolein transfer (lipids harvested from fatty acid-treated HepG2 cells, P=0.3): 60%±8%
